Laboratory results as given in patent US8927498B2, “Compositions and methods useful in enhancement of memory” (The Translational Genomics Research Institute, priority 2010, dated 2015).

System: hippocampal transcripts (mitochondrial pathway genes and genes associated with neurological function)
Experiment: transcriptome examination using RNA-Seq, hippocampus
Assay type: in vivo, rat
From the text: Transcriptome Examination Using RNA-Seq Upon MARCKS Peptide Decoy Treatment
Following sacrifice, the left hippocampus was utilized for genome-wide expression profiling. […] These included Adcyap1 with fold change (FC) of 1.5, and p=0.029, Tiam1 with FC of −1.5 and p=0.028, and Filip1 with FC of −1.75 and p=0.032 (Table 1). The RT-PCR validation of the fold change of FILIP1 and Tiam1 is shown in Table 2 and Table 3, respectively.
Table 4 disclosed herein provides the major pathways in mitochondria altered in the MARCKS peptide decoy treated animals. Mitochondrial NADH dehydrogenase is a key enzyme in the oxidative phosphorylation pathway in the mitochondria. Mitochondrially encoded cytochrome c oxidase I (MT-CO1), also known as cytochrome c oxidase I (COX1), is a protein that is found in mitochondria. Cytochrome c oxidase is the component of the respiratory chain that catalyzes the reduction of oxygen to water. MT-CO1 is associated with aging. Mutations in the human MT-CO1 gene have been associated with several diseases, including neurodegenerative diseases, such as late-onset Alzheimer disease. Cytochrome b (mt-cyb) is a component of the ubiquinol-cytochrome c reductase complex (complex III or cytochrome b-c1 complex), which is a respiratory chain that generates an electrochemical potential coupled to ATP synthesis. ATP synthase F0 subunit 6 (or subunit/chain A) is a subunit of F0 complex of transmembrane F-type ATP synthase. This subunit is a key component of the proton channel, and may play a direct role in the translocation of protons across the membrane. ATP6 is a gene associated with neuropathy, ataxia, and retinitis pigmentosa. mt-ATP8 is another subunit involved in ATP biosynthetic process.
Table 5 provides the list of the genes that are directly or indirectly associated with neurological function and are with significant fold change in peptide decoy treated animals in comparison to the controls.

[1] = locus chrM: 9450-9798, vehicle 617.42

Substance: SEQ ID NO: 1: fusion peptide including a TAT protein transduction domain and residues surrounding two known serine phosphorylation targets (Ser159 and Ser163) within MARCKS (YGRKKRRQRRRCKRFSFKKSFKLSGFSFKK; TAT MARCKS fusion)
- Ln (Fold Change) (M/V), Calm3 (locus chr1: 77244168-77252808): 1.894
- MARCKS FPKM, Calm3 (locus chr1: 77244168-77252808, vehicle 856.54): 1621.94 FPKM
- Ln (Fold Change) (M/V), Fth1 (locus chr1: 212430422-212432741): 1.397
- MARCKS FPKM, Fth1 (locus chr1: 212430422-212432741, vehicle 354.58): 495.44 FPKM
- Ln (Fold Change) (M/V), P97600_RAT (locus chr1: 249369571-249369889): 0.7544
- MARCKS FPKM, P97600_RAT (locus chr1: 249369571-249369889, vehicle 492.68): 371.65 FPKM
- Ln (Fold Change) (M/V), Selt (locus chr2: 147913244-147929296): 0.5377
- MARCKS FPKM, Selt (locus chr2: 147913244-147929296, vehicle 214.44): 115.30 FPKM
- Ln (Fold Change) (M/V), Snap25 (locus chr3: 124860288-124894636): 0.8176
- MARCKS FPKM, Snap25 (locus chr3: 124860288-124894636, vehicle 750.47): 613.59 FPKM
- Ln (Fold Change) (M/V), Ywhab (locus chr3: 154926026-155140469): 0.5137
- MARCKS FPKM, Ywhab (locus chr3: 154926026-155140469, vehicle 131.57): 67.59 FPKM
- Ln (Fold Change) (M/V), Sdcbp (locus chr5: 19822457-19849209): 0.666
- MARCKS FPKM, Sdcbp (locus chr5: 19822457-19849209, vehicle 131.61): 87.65 FPKM
- Ln (Fold Change) (M/V), Rraga (locus chr5: 105659673-105661250): 0.4798
- MARCKS FPKM, Rraga (locus chr5: 105659673-105661250, vehicle 433.02): 207.77 FPKM
- Ln (Fold Change) (M/V), HPCA_RAT (locus chr5: 148268061-148276223): 2.229
- MARCKS FPKM, HPCA_RAT (locus chr5: 148268061-148276223, vehicle 141.44): 315.32 FPKM
- Ln (Fold Change) (M/V), RTN1_RAT (locus chr6: 94397064-94426283): 1.726
- MARCKS FPKM, RTN1_RAT (locus chr6: 94397064-94426283, vehicle 842.08): 1453.43 FPKM
- Ln (Fold Change) (M/V), Tuba1b (locus chr7: 137706855-137709839): 0.5387
- MARCKS FPKM, Tuba1b (locus chr7: 137706855-137709839, vehicle 219.23): 118.09 FPKM
- Ln (Fold Change) (M/V), Ywhae (locus chr10: 63072127-63109833): 0.6546
- MARCKS FPKM, Ywhae (locus chr10: 63072127-63109833, vehicle 892.66): 584.35 FPKM
- Ln (Fold Change) (M/V), Aldoc (locus chr10: 64308825-64312415): 0.5322
- MARCKS FPKM, Aldoc (locus chr10: 64308825-64312415, vehicle 140.11): 74.57 FPKM
- Ln (Fold Change) (M/V), Ndrg2 (locus chr15: 27338551-27347196): 0.4224
- MARCKS FPKM, Ndrg2 (locus chr15: 27338551-27347196, vehicle 142.86): 60.35 FPKM
- Ln (Fold Change) (M/V), Calm-ps2 (locus chr15: 64161641-64162753): 0.7792
- MARCKS FPKM, Calm-ps2 (locus chr15: 64161641-64162753, vehicle 383.97): 299.19 FPKM
- Ln (Fold Change) (M/V), Gpm6a (locus chr16: 39670749-39783384): 0.5709
- MARCKS FPKM, Gpm6a (locus chr16: 39670749-39783384, vehicle 311.49): 177.84 FPKM
- Ln (Fold Change) (M/V), Slc25a4 (locus chr16: 49353475-49357271): 1.571
- MARCKS FPKM, Slc25a4 (locus chr16: 49353475-49357271, vehicle 243.91): 383.20 FPKM
- Ln (Fold Change) (M/V), Mt3 (locus chr19: 11284554-11286402): 1.316
- MARCKS FPKM, Mt3 (locus chr19: 11284554-11286402, vehicle 301.07): 396.12 FPKM
- Ln (Fold Change) (M/V), Non-Annotated (locus chrM: 67-1025): 0.8288
- MARCKS FPKM, Non-Annotated (locus chrM: 67-1025, vehicle 69491.10): 57596.80 FPKM
- Ln (Fold Change) (M/V), Non-Annotated (locus chrM: 1093-2664): 0.6921
- MARCKS FPKM, Non-Annotated (locus chrM: 1093-2664, vehicle 53178.50): 36802.40 FPKM
- Ln (Fold Change) (M/V), Mitochondrial NADH dehydrogenase subunit 1 mt-nd1 (locus chrM: 2739-3831): 0.7838
- MARCKS FPKM, Non-Annotated (locus chrM: 2739-3831, vehicle 51.90): 0.00 FPKM
- MARCKS FPKM, Non-Annotated (locus chrM: 2739-3831, vehicle 126.72): 0.00 FPKM
- MARCKS FPKM, Mitochondrial NADH dehydrogenase subunit 1 mt-nd1 (locus chrM: 2739-3831, vehicle 1879.89): 1473.47 FPKM
- Ln (Fold Change) (M/V), Non-Annotated (locus chrM: 2739-3831, vehicle FPKM 51.90): 0
- Ln (Fold Change) (M/V), Non-Annotated (locus chrM: 2739-3831, vehicle FPKM 126.72): 0
- Ln (Fold Change) (M/V), Mitochondrial NADH dehydrogenase subunit 2 mt-nd2 (locus chrM: 3903-5008): 0.5713
- MARCKS FPKM, Mitochondrial NADH dehydrogenase subunit 2 mt-nd2 (locus chrM: 3903-5008, vehicle 1965.45): 1122.94 FPKM
- Ln (Fold Change) (M/V), Cytochrome c oxidase subunit I mt-co1 (locus chrM: 5322-6933): 0.7397
- Ln (Fold Change) (M/V), Non-Annotated (locus chrM: 5322-6933): 0
- MARCKS FPKM, Non-Annotated (locus chrM: 5322-6933, vehicle 321.91): 0.00 FPKM
- MARCKS FPKM, Cytochrome c oxidase subunit I mt-co1 (locus chrM: 5322-6933, vehicle 9734.89): 7200.89 FPKM
- Ln (Fold Change) (M/V), Cytochrome c oxidase subunit 2 mt-co2 (locus chrM: 7005-7689): 0.6512
- MARCKS FPKM, Cytochrome c oxidase subunit 2 mt-co2 (locus chrM: 7005-7689, vehicle 5773.44): 3759.79 FPKM
- Ln (Fold Change) (M/V), ATP synthase F0 subunit 6 mt-ATP6 (locus chrM: 7757-9382): 0.5529
- Ln (Fold Change) (M/V), ATP synthase F0 subunit 8 mt-ATP8 (locus chrM: 7757-9382): 0.7137
- Ln (Fold Change) (M/V), Cytochrome c oxidase subunit 3 mt-co3 (locus chrM: 7757-9382): 0.5326
- MARCKS FPKM, ATP synthase F0 subunit 6 mt-ATP6 (locus chrM: 7757-9382, vehicle 3257.55): 1801.13 FPKM
- MARCKS FPKM, ATP synthase F0 subunit 8 mt-ATP8 (locus chrM: 7757-9382, vehicle 3627.88): 2589.08 FPKM
- MARCKS FPKM, Cytochrome c oxidase subunit 3 mt-co3 (locus chrM: 7757-9382, vehicle 5137.18): 2736.25 FPKM
- Ln (Fold Change) (M/V), Mitochondrial NADH dehydrogenase subunit 3 mt-nd3 (locus chrM: 9450-9798): 0.5255
- Ln (Fold Change) (M/V), NU3M_RAT (locus chrM: 9450-9798): 0.5255
- MARCKS FPKM, Mitochondrial NADH dehydrogenase subunit 3 mt-nd3 [1]: 324.46 FPKM
- MARCKS FPKM, NU3M_RAT [1]: 324.46 FPKM
- Ln (Fold Change) (M/V), Mitochondrial NADH dehydrogenase subunit 4 mt-nd4 (locus chrM: 9869-11537): 0.6903
- Ln (Fold Change) (M/V), NADH dehydrogenase subunit 4L mt-ND4L (locus chrM: 9869-11537): 0.7182
- MARCKS FPKM, Mitochondrial NADH dehydrogenase subunit 4 mt-nd4 (locus chrM: 9869-11537, vehicle 2440.82): 1684.95 FPKM
- MARCKS FPKM, NADH dehydrogenase subunit 4L mt-ND4L (locus chrM: 9869-11537, vehicle 5804.14): 4168.41 FPKM
- Ln (Fold Change) (M/V), Mitochondrial NADH dehydrogenase subunit 5 mt-nd5 (locus chrM: 11735-14061): 0.8563
- Ln (Fold Change) (M/V), Mitochondrial NADH dehydrogenase subunit 6 mt-nd6 (locus chrM: 11735-14061): 0.4947
- MARCKS FPKM, Mitochondrial NADH dehydrogenase subunit 6 mt-nd6 (locus chrM: 11735-14061, vehicle 1073.10): 530.91 FPKM
- MARCKS FPKM, Mitochondrial NADH dehydrogenase subunit 5 mt-nd5 (locus chrM: 11735-14061, vehicle 2920.80): 2501.19 FPKM
- Ln (Fold Change) (M/V), Cytochrome b (mt-cyb) (locus chrM: 14135-15278): 0.7536
- MARCKS FPKM, Cytochrome b (mt-cyb) (locus chrM: 14135-15278, vehicle 2792.49): 2104.37 FPKM
- Ln (Fold Change) (M/V), Gdi1 (locus chrX: 160299116-160305777): 0.6667
- MARCKS FPKM, Gdi1 (locus chrX: 160299116-160305777, vehicle 124.22): 82.82 FPKM
